In one assay the target is PKC α (Homo sapiens, UniProt P17252). In words: Biotinylated Peptide Substrate Assay, PKC α. In kind it is biochemical. The note with it: 10 μM ATP; >10 = no 50% inhibition at highest dose tested. Here is the method:
Biotinylated peptide substrates were selected from the literature as appropriate for the enzyme being evaluated.
Assay conditions vary slightly for each protein kinase, for example, insulin receptor kinase requires 10 mM MnCl2 for activity and Calmodulin-dependent protein kinase requires calmodulin and 10 mM CaCl2. […] Enzyme was diluted in 50 mM Tris-HCl pH=8.0, 0.1% BSA and added to each well. The reaction was incubated for one hour at 30° C. in the presence of compound. After one hour the reaction mix was aspirated from the plate and the plate was washed with PBS containing 100 mM EDTA. The plate was read on a scintillation counter to determine ^33P-γ-ATP incorporated into the immobilized peptide. […] A maximum and minimum signal for the assay was determined on each plate.

Another assay has as its system L6 muscle cells. In words: Cell-Based GSK 3-β Assay (glycogen content of L6 muscle cells). Particulars: for 14C-Glucose Incorporation (dpm): L6 cells, 2 hours, 0.0 μM control Cpd 1 1640, Cpd 2 2078; for glycogen synthesis in L6 skeletal muscle cells: upon exposure to compound, result in words. Here is the method: Glycogen content of L6 muscle cells was measured according to the method described in Berger and Hayes, Anal. Biochem., 1998, 261, 159-163.
Briefly, L6 cells were serum starved overnight in alpha-MEM containing 0.1%. On the following day, cells were washed three times with 300 μL KRPH buffer (150 mM NaCl, 5 mM KCl, 2.9 mM Na2HPO4, 1.25 mM MgSO4, 1.2 mM CaCl2, 10 mM HEPES, pH 7.4) and labeled with 200 μL alpha-MEM containing 5.5 mM ^14C-Glucose (0.1 μCi) in the presence of vehicle (DMSO) or compounds. After 2 hours, cells were washed three times with ice-cold PBS and glycogen was precipitated for 2 hours using ice-cold 66% EtOH. Precipitated glycogen was then washed three times with ice-cold 66% EtOH and ^14C-glycogen was quantified using a TopCount (Packard).
Compounds were tested in separate experiments at the dose levels shown. Where shown, the 0.0 μM dose was used as a control.

Each structure is given as a SMILES string.

Regarding `O=C1NC(=O)C2=C1c1cn(c3ccccc13)CCOCCOCCOCCn1cc2c2cccnc21` [Cpd 11], the “PKC α Kinase Assay (IC50 uM)” value at PKC α is above 10 µM.
Take `O=C1NC(=O)C2=C1c1cn(c3ccccc13)CCOCCOCCn1cc2c2cccnc21` [Cpd 10]: on PKC α, the “PKC α Kinase Assay (IC50 uM)” value was above 10 µM.
As to `O=C1NC(=O)C2=C1c1cn(c3ncccc13)CCOCCOCCOCCOCCn1cc2c2cccnc21` [Cpd 2], the “14C-Glucose Incorporation (dpm)” value in the assay on L6 muscle cells (dose 1 μM) is reported as 2224 dpm; in the assay with L6 muscle cells (dose 3 μM), 2518 dpm; in the assay on L6 muscle cells (dose 10 μM), 2806 dpm. Besides, the “glycogen synthesis in L6 skeletal muscle cells” value with L6 muscle cells is on record as “increased glycogen synthesis”.
The matching figures for `O=C1NC(=O)C2=C1c1cn(c3ncccc13)CCOCCOCCOCCn1cc2c2cccnc21` [Cpd 1]: 1898 dpm, 1958 dpm, 2426 dpm and “increased glycogen synthesis”.

For the origin of these results see patent publication US6828327B2, “Macroheterocylic compounds useful as kinase inhibitors” (Ortho-McNeil Pharmaceutical, Inc., priority 2000, dated 2004).
